Where “and” joins values, the source holds several entries; their conditions need not be identical. Identical values can stand only once. Like-named read-outs stand apart in the source and are kept apart here.
How the values were obtained:
[1] = target: T1, norepinephrine transporter (h) (Homo sapiens, UniProt P23975); test: In vitro CEREP profiling, norepinephrine transporter (h) (antagonist radioligand); type: binding; settings: test compound concentration 10 uM; for inhibition at 10 µM: read-out: perc_inhibition, % inhibition of the binding of a ligand specific for each target
T1 construct: purchased Eurofins Cerep (SafetyScreen44), recognised from the panel format
Description: (§1) Supplement media-1.zip/Safety_Panel_Profile.csv, table | column: perc_inhibition

COX1(h) = target: T2, COX1(h) (Homo sapiens, UniProt P23219); test: In vitro CEREP profiling, COX1(h); type: biochemical; settings: test compound concentration 10 uM, Enzyme and Cell-based assays; for inhibition at 10 µM: read-out: perc_inhibition: % inhibition of control enzyme activity, COX1(h)
T2 construct: purchased Eurofins Cerep (SafetyScreen44), recognised from the panel format
Description: as §1

M3 (h) = target: T3, M3 (h) (Homo sapiens, UniProt P20309); test: In vitro CEREP profiling, M3 (h) (antagonist radioligand); type: binding; settings: test compound concentration 10 uM; for inhibition at 10 µM: read-out: perc_inhibition (% inhibition of the binding of a ligand specific for each target)
T3 construct: purchased Eurofins Cerep (SafetyScreen44), recognised from the panel format
Description: as §1

5-HT transporter (h) = target: T4, 5-HT transporter (h) (Homo sapiens, UniProt P31645); test: In vitro CEREP profiling, 5-HT transporter (h) (antagonist radioligand); settings: test compound concentration 10 uM
T4 construct: purchased Eurofins Cerep (SafetyScreen44), recognised from the panel format
Description: as §1

[2] = Hepatic microsomal stability, HLM; type: in vitro ADME, human; settings: for clearance (metabolic stability), in words: HLM/MLM; for perc_remaining / t_half / perc_remaining_no_cofactor / microsomal CLint / clint: In vitro human liver microsomal stability; for perc_remaining_no_cofactor: no cofactor; for microsomal CLint: liver microsomes
beta2 (h) = target: T5, beta2 (h) (Homo sapiens, UniProt P07550); test: In vitro CEREP profiling, beta2 (h) (antagonist radioligand); type: binding; settings: test compound 10 uM; for inhibition at 10 µM: read-out: perc_inhibition (% inhibition of the binding of a ligand specific for each target)
T5 construct: purchased Eurofins Cerep (SafetyScreen44), recognised from the panel format
Description: as §1

5-HT1B (h) = target: T6, 5-HT1B (h) (Homo sapiens, UniProt P28222); test: In vitro CEREP profiling, 5-HT1B (h) (antagonist radioligand); type: binding; settings: test compound concentration 10 uM; for inhibition at 10 µM: read-out: perc_inhibition (% inhibition of the binding of a ligand specific for each target)
T6 construct: purchased Eurofins Cerep (SafetyScreen44), recognised from the panel format
Description: as §1

[3] = target: T7, N neuronal alpha4beta2 (h) (Homo sapiens, UniProt P17787+P43681); test: In vitro CEREP profiling, N neuronal alpha4beta2 (h) (agonist radioligand); type: binding; settings: test compound concentration 10 uM; for inhibition at 10 µM: read-out: perc_inhibition (% inhibition of the binding of a ligand specific for each target)
T7 construct: purchased Eurofins Cerep (SafetyScreen44), recognised from the panel format
Description: as §1

acetylcholinesterase (h) = target: T8, acetylcholinesterase (h) (Homo sapiens, UniProt P22303); test: In vitro CEREP profiling, acetylcholinesterase (h); type: biochemical; settings: test compound concentration 10 uM, Enzyme and Cell-based assays; for inhibition at 10 µM: read-out: perc_inhibition: % inhibition of control enzyme activity, acetylcholinesterase (h)
T8 construct: purchased Eurofins Cerep (SafetyScreen44), recognised from the panel format
Description: as §1

Vero E6/TMPRSS2 = Vero E6/TMPRSS2 cytotoxicity with P-gp inhibitor; type: cell-based; settings: for perc_max_measured: highest measured response of the dose series; for perc_min_measured: lowest measured response of the dose series
Description: Supplement media-1.zip/Cytotoxicity.csv, table | column: cc10; cc50; perc_min_measured; perc_max_measured

D1 (h) = target: T9, D1 (h) (Homo sapiens, UniProt P21728); test: In vitro CEREP profiling, D1 (h) (antagonist radioligand); type: binding; settings: test compound 10 uM; for inhibition at 10 µM: read-out: perc_inhibition (% inhibition of the binding of a ligand specific for each target)
T9 construct: purchased Eurofins Cerep (SafetyScreen44), recognised from the panel format
Description: as §1

HeLa-ACE2 cells = settings: for perc_max_measured: highest measured response of the dose series; for perc_min_measured: lowest measured response of the dose series
[4] = In vitro mouse hepatocyte stability; type: in vitro ADME
Description: Supplement media-1.zip/Hepatocyte_Stability.csv, table | column: clint; t_half

alpha2A (h) = target: T10, alpha2A (h) (Homo sapiens, UniProt P08913); test: In vitro CEREP profiling, alpha2A (h) (antagonist radioligand); type: binding; settings: test compound 10 uM; for inhibition at 10 µM: read-out: perc_inhibition (% inhibition of the binding of a ligand specific for each target)
T10 construct: purchased Eurofins Cerep (SafetyScreen44), recognised from the panel format
T10 sequence (P08913 1-465): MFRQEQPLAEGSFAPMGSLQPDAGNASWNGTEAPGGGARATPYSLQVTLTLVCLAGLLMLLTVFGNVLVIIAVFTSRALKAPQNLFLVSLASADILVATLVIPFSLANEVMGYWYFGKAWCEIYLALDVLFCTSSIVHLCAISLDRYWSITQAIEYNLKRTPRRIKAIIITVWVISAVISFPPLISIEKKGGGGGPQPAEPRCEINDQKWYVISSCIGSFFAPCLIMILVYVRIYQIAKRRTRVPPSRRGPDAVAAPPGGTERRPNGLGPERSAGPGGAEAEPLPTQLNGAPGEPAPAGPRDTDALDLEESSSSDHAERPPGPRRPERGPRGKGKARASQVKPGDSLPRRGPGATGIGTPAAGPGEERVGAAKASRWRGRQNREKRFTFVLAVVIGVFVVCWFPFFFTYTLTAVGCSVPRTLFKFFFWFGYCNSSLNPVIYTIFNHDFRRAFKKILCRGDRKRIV
Description: as §1

5-HT3 (h) = target: T11, 5-HT3 (h) (Homo sapiens, UniProt P46098); test: In vitro CEREP profiling, 5-HT3 (h) (antagonist radioligand); type: binding; settings: test compound concentration 10 uM; for inhibition at 10 µM: read-out: perc_inhibition, % inhibition of the binding of a ligand specific for each target
T11 construct: purchased Eurofins Cerep (SafetyScreen44), recognised from the panel format
T11 sequence (P46098 24-478): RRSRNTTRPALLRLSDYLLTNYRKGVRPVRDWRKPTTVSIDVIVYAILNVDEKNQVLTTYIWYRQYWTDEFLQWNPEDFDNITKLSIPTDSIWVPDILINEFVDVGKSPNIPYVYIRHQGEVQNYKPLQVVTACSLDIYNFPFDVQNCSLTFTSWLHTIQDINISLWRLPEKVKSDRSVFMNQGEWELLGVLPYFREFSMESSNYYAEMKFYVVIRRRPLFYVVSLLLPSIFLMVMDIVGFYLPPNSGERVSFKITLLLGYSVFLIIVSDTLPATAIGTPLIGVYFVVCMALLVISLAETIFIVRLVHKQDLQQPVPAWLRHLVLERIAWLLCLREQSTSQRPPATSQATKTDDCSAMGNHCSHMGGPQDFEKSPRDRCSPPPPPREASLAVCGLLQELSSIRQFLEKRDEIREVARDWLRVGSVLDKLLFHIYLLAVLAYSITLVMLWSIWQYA
Description: as §1

[5] = target: T12, Potassium Channel hERG (human) (Homo sapiens, UniProt Q12809); test: In vitro CEREP profiling, Potassium Channel hERG (human)- [3H] Dofetilide; type: binding; settings: test compound concentration 10 uM
T12 construct: purchased Eurofins Cerep (SafetyScreen44), recognised from the panel format
Description: as §1

[6] = protocol HeLa-ACE2 cytotoxicity

T6 sequence (P28222 whole entry): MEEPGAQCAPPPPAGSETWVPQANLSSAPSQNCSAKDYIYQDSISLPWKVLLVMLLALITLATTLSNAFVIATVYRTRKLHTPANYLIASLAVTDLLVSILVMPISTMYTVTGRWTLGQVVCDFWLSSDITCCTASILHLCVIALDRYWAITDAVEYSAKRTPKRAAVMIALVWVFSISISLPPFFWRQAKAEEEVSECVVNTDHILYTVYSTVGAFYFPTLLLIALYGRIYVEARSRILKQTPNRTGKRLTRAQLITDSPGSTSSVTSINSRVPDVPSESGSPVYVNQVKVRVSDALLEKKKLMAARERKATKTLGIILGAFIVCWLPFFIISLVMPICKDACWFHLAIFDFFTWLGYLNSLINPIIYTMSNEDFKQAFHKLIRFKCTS
T2 sequence (P23219 24-599): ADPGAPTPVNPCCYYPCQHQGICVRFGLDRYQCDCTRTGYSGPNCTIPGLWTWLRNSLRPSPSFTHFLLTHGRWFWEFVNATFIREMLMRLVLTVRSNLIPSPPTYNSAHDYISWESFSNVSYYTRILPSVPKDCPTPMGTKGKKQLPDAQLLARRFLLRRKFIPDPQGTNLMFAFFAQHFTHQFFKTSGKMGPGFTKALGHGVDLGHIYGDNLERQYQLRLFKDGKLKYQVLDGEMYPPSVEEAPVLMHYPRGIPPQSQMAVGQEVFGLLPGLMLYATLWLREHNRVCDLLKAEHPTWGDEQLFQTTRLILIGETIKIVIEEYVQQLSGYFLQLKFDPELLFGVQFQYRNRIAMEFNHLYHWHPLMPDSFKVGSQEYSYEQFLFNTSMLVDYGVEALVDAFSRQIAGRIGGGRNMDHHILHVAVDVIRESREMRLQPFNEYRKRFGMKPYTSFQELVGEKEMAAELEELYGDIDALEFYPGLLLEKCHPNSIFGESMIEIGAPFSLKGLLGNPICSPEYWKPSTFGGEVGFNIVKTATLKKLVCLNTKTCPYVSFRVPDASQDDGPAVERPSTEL
T1 sequence (P23975 whole entry): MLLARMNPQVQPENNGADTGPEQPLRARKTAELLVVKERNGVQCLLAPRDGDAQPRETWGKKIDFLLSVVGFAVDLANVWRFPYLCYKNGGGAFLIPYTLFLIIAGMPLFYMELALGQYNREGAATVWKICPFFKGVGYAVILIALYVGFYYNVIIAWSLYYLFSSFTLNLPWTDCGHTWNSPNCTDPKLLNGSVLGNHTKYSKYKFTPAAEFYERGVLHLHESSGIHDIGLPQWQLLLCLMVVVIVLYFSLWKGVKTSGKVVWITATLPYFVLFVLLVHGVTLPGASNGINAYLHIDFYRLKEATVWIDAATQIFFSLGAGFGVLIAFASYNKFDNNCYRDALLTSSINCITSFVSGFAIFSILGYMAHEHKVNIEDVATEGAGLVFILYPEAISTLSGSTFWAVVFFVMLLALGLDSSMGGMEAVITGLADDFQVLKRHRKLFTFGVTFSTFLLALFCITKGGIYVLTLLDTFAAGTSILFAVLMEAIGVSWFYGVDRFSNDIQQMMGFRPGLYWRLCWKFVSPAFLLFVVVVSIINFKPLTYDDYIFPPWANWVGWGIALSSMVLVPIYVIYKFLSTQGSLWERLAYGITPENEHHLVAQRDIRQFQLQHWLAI
T3 sequence (P20309 whole entry): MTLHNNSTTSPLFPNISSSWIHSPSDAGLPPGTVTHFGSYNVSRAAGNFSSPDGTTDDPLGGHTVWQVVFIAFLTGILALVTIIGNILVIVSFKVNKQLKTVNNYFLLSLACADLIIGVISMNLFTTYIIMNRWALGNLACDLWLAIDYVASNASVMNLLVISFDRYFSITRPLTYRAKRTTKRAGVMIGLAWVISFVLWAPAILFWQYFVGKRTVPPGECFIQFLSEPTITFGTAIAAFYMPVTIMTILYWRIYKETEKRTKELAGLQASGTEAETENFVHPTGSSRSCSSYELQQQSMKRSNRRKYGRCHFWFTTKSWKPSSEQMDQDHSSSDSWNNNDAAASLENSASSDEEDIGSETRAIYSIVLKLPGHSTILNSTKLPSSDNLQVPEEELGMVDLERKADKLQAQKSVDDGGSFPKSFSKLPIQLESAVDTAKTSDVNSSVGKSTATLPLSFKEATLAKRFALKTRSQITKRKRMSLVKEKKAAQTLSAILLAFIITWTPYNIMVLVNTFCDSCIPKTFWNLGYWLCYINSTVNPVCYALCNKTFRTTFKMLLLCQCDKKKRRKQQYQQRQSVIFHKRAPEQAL
T9 sequence (P21728 whole entry): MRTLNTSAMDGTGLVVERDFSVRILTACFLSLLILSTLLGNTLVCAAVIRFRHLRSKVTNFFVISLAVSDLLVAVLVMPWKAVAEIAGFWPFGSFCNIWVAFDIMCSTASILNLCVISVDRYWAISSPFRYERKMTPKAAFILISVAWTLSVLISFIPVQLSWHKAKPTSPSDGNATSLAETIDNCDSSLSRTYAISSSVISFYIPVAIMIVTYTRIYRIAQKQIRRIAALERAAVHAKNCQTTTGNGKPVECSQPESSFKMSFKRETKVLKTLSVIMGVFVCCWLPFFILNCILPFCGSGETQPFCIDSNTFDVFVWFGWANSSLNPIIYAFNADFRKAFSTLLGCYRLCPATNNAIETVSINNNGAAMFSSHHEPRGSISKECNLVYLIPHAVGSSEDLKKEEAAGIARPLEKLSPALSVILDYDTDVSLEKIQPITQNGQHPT
T8 sequence (P22303 32-614): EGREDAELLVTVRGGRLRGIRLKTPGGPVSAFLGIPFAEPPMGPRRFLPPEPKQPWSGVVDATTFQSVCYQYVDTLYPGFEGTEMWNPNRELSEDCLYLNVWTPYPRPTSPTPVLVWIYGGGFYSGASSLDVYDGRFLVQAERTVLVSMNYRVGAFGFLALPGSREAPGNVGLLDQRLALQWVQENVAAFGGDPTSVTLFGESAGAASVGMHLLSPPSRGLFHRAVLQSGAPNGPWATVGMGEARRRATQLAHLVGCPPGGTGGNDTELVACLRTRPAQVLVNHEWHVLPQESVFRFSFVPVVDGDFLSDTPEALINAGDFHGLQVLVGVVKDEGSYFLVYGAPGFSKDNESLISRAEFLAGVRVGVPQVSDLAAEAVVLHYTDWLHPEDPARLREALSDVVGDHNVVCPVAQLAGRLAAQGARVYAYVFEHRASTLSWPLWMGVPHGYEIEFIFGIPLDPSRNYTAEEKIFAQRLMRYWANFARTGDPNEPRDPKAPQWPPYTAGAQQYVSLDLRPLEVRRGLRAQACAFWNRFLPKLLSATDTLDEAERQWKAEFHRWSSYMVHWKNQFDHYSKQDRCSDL
T7 sequence (P43681 29-627 limits assumed): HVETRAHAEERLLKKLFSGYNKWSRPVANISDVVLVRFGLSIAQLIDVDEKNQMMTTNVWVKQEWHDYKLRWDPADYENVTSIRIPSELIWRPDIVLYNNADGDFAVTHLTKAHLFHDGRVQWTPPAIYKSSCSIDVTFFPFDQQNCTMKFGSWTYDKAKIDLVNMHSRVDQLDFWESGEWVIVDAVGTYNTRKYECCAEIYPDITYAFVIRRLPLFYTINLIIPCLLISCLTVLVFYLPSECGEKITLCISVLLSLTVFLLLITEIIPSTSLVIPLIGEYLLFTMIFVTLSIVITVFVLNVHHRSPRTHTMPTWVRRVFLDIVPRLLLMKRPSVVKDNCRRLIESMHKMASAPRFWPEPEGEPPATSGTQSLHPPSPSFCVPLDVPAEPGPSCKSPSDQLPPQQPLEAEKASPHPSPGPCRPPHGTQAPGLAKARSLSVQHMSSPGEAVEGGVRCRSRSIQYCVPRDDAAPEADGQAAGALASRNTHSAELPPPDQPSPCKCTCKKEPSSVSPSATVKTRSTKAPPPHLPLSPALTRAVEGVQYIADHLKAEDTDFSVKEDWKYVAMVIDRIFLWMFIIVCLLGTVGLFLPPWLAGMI
T7 sequence (P17787 26-502): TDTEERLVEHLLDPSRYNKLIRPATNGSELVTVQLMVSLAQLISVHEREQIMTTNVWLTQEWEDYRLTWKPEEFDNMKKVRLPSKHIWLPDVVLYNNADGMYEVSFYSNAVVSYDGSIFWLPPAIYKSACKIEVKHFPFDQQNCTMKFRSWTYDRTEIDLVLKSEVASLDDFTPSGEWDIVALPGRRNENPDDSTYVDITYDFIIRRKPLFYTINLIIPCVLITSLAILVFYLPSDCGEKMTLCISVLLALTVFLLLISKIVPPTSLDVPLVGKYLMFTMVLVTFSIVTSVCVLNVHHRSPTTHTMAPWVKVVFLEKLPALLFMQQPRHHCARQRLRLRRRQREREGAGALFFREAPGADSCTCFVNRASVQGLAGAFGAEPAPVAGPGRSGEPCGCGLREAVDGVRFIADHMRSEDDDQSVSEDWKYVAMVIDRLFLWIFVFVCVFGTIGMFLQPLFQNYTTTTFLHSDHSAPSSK
T5 sequence (P07550 whole entry): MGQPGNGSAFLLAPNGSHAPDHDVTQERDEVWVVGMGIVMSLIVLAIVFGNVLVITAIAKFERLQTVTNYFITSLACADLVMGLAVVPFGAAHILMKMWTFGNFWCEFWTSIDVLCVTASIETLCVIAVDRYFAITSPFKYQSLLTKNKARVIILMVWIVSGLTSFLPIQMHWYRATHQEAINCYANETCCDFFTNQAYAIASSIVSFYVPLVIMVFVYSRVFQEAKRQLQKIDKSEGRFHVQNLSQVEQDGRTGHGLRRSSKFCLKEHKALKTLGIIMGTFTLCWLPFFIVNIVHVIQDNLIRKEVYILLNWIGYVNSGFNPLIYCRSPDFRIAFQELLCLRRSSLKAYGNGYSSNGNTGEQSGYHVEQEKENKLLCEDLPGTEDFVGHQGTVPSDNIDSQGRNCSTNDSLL

| Structure (SMILES) | inhibition at 10 µM [1] [%] | inhibition at 10 µM (COX1(h)) [%] | inhibition at 10 µM (M3 (h)) [%] | perc_inhibition: % inhibition of the binding of a ligand specific for each target, 5-HT transporter (h) (antagonist radioligand) (5-HT transporter (h)) [%] | clearance (metabolic stability), in words [2] | perc_remaining [2] [%] | t_half [2] [min] | perc_remaining_no_cofactor [2] [%] | microsomal CLint [2] [µL/min/mg] | inhibition at 10 µM (beta2 (h)) [%] | inhibition at 10 µM (5-HT1B (h)) [%] | inhibition at 10 µM [3] [%] | cc10 (Vero E6/TMPRSS2) [µM] | perc_max_measured (Vero E6/TMPRSS2) [%] | perc_min_measured (Vero E6/TMPRSS2) [%] | cc10 (HeLa-ACE2 cells; HeLa-ACE2 cytotoxicity) [µM] | perc_max_measured (HeLa-ACE2 cells; HeLa-ACE2 cytotoxicity) | perc_min_measured (HeLa-ACE2 cells; HeLa-ACE2 cytotoxicity) | clint [4] [uL/min/1E6 cells] | t_half [4] | further results |
| --- | --- | --- | --- | --- | --- | --- | --- | --- | --- | --- | --- | --- | --- | --- | --- | --- | --- | --- | --- | --- | --- |
| CC(C)C(Nc1ncnc2[nH]c(C(=O)NC3CCN(C)C3)cc12)c1ccc2c(c1)S(=O)(=O)CCC2 (stereo not drawn) [ASAP-0011198] | -1 | 44 | -9 | 1 | low clearance | 70.0 | 83.8 | 106.0 | 20 | -3 | 17 | -2 | > 5.0 | 120.684 | 90.027 | > 20.0 | 148.177% | 90.706% | 61.0 | 10.1 min and 11.4 min | inhibition at 10 µM (acetylcholinesterase (h)): 28%; inhibition at 10 µM (D1 (h)): -3%; CC50 (HeLa-ACE2 cells; [6]): > 20 µM; cc10 (HeLa-ACE2 cells; [6]): > 20.0 µM; perc_max_measured (HeLa-ACE2 cells; [6]): 87.174%; perc_min_measured (HeLa-ACE2 cells; [6]): 78.327%; hepatocyte CLint ([4]; mouse, hepatocytes): 68.4 µL/min/1e6 cells; inhibition at 10 µM (alpha2A (h)): 6%; inhibition at 10 µM (5-HT3 (h)): 2% |
| Cc1nn(C)cc1-c1cc2c(NC(c3ccc4c(c3)S(=O)(=O)CCC4)C(C)C)ncnc2[nH]1 (stereo not drawn) [ASAP-0011446] | -2 | -23 | -9 | -4 | moderate-to-high clearance | 1.0 | 6.1 | 113.0 | 273 | -7 | 15 | -2 | > 5.0 | 106.351 | 79.435 | > 20.0 | 134.035% | 80.92% | – | – | inhibition at 10 µM (acetylcholinesterase (h)): 13%; inhibition at 10 µM (D1 (h)): 3%; CC50 (HeLa-ACE2 cells; [6]): > 20 µM; cc10 (HeLa-ACE2 cells; [6]): > 20.0 µM; perc_max_measured (HeLa-ACE2 cells; [6]): 92.951%; perc_min_measured (HeLa-ACE2 cells; [6]): 82.728%; inhibition at 10 µM (alpha2A (h)): 5%; inhibition at 10 µM (5-HT3 (h)): 6% |
| C[C@H](C(=O)O)[C@@H](NC(=O)c1ncnc2[nH]ccc12)c1ccc(Br)cc1 [ASAP-0014722] | – | – | – | – | – | 92.211 | 573.861 | 101.611 | – | – | – | – | > 5.0 | 112.113 | 82.421 | > 20.0 | 102.029% and 107.127% | 80.657% and 84.357% | 4.35 | 159.0 min | perc_inhibition (% inhibition of the binding of a ligand specific for each target) [1]: -6%; perc_inhibition: % inhibition of control enzyme activity, COX1(h) (COX1(h)): 14%; perc_inhibition (% inhibition of the binding of a ligand specific for each target) (M3 (h)): -9%; clint [2]: 3.0 µL/min/mg; perc_inhibition (% inhibition of the binding of a ligand specific for each target) (beta2 (h)): -8%; perc_inhibition (% inhibition of the binding of a ligand specific for each target) [5]: 14%; perc_inhibition (% inhibition of the binding of a ligand specific for each target) (5-HT1B (h)): 1%; perc_inhibition (% inhibition of the binding of a ligand specific for each target) [3]: 0%; perc_inhibition: % inhibition of control enzyme activity, acetylcholinesterase (h) (acetylcholinesterase (h)): 12%; CC50 (Vero E6/TMPRSS2): > 5 µM; perc_inhibition (% inhibition of the binding of a ligand specific for each target) (D1 (h)): -8%; CC50 (HeLa-ACE2 cells; HeLa-ACE2 cytotoxicity): > 20 µM; perc_inhibition (% inhibition of the binding of a ligand specific for each target) (alpha2A (h)): 3%; perc_inhibition (% inhibition of the binding of a ligand specific for each target) (5-HT3 (h)): 2% |
| COc1ccc([C@H](Cc2nnn[nH]2)NC(=O)c2ncnc3[nH]ccc23)cc1 [ASAP-0015381] | – | – | – | – | – | 105.597 | 1085.642 | 84.68 | – | – | – | – | > 5.0 | 119.979 | 89.804 | > 20.0 | 115.218% and 123.48% | 79.698% and 90.022% | 4.6 | 151.0 min | perc_inhibition (% inhibition of the binding of a ligand specific for each target) [1]: -5%; perc_inhibition: % inhibition of control enzyme activity, COX1(h) (COX1(h)): 17%; perc_inhibition (% inhibition of the binding of a ligand specific for each target) (M3 (h)): -15%; clint [2]: 2.0 µL/min/mg; perc_inhibition (% inhibition of the binding of a ligand specific for each target) (beta2 (h)): -6%; perc_inhibition (% inhibition of the binding of a ligand specific for each target) [5]: 5%; perc_inhibition (% inhibition of the binding of a ligand specific for each target) (5-HT1B (h)): -14%; perc_inhibition (% inhibition of the binding of a ligand specific for each target) [3]: 4%; perc_inhibition: % inhibition of control enzyme activity, acetylcholinesterase (h) (acetylcholinesterase (h)): 11%; CC50 (Vero E6/TMPRSS2): > 5 µM; perc_inhibition (% inhibition of the binding of a ligand specific for each target) (D1 (h)): -18%; CC50 (HeLa-ACE2 cells; HeLa-ACE2 cytotoxicity): > 20 µM; perc_inhibition (% inhibition of the binding of a ligand specific for each target) (alpha2A (h)): -1%; perc_inhibition (% inhibition of the binding of a ligand specific for each target) (5-HT3 (h)): 6% |
